Measured values reported in US6867179B1, “Methods of inducing hair growth and coloration” (Trustees of Boston University, priority 1994, dated 2005).
“Also recorded” adds a separate entry of the source.

Key:
Bcl-2 protein [1] = experiment: Keratinocyte BCL-2 level after NGF deprivation (Western blot); type: cell-based, human; details: medium lacking BPE, 50 ng/ml NGF versus diluent, 24 and 48 hours
Protocol: To determine if NGF affects BCL-2 protein level in keratinocytes, cells were maintained in Keratinocyte basal medium until 60-80% confluent. Then cells were provided medium lacking BPE to eliminate exogenous NGF. Duplicate cultures were provided 50 ng/ml NGF or diluent alone.
Total keratinocyte proteins were extracted, and BCL-2 levels were determined by Western blot analysis as in Example 6.

human melanocytes = type: cell-based
Bcl-2 protein [2] = experiment: Bcl-2 protein expression in MM4 cells (FACScan, Western blot); type: cell-based, human
Protocol: To determine if NGF induces Bcl-2 protein, MM4 cells were UV-irradiated with 10 mJ/cm^2 or sham irradiated and then supplemented with NGF or diluent alone as explained in Example 3. Twenty-four hours after irradiation, cells were washed with PBS and then detached with 0.5 mM EDTA and washed again with PBS. 10^6 cells were incubated with […] mouse anti human Bcl-2 monoclonal antibody (DAKO Co., Carpinteria, Calif.) or with the same concentration of normal mouse IgG (Cappel, Organon Teknika Co., West Chester, Pa., USA) in PBS with 0.3% Saponin (Sigma, St, Louis, Mo.) for 2 hours at 4%C. After three washes with PBS, cells were incubated with fluorescein-conjugated goat anti-mouse IgG (1 hour at 4%C) (Cappel), washed four times in PBS, fixed with 0.1% fresh formaldehyde, and washed three times in PBS. Fluorescence intensity was determined using FACScan flow cytometer (Becton-Dickinson, San Jose, Calif.).
(−) mouse IgG control; (_) diluent alone; ( . . . ) 50 ng/ml NGF.
MM4 cells were extracted in RIPA buffer (50 mM Tris-HCl [pH 8.0], 0.15 M NaCl, 0.5% sodium deoxycholate, 1% Triton X-100) in the presence of […] aprotinin and 75 µg/ml phenylmethylsulfonyl fluoride, sonicated for 1-3 seconds and centrifuged. […] of protein per lane were separated on 12% SDS/PAGE and blotted onto nitrocellulose paper (overnight, 40V). […]

melanocytes = experiment: Apoptosis (propidium iodide-positive nuclei) in UV-irradiated melanocytes; type: cell-based, human; details: UV 10 mJ/cm^2, 50 ng/ml NGF, 24 hours after irradiation; diluent about 30%
Protocol: To determine if melanocyte apoptosis is mediated by p75 NGF-R, cultures were treated as above, and then incubated in the presence of a blocking anti-human p75 NGF-R monoclonal antibody believed to act as a pseudo-ligand for the p75 NGF-R. (Anti-human p75 NGF-R monoclonal antibody courtesy of Moses V. Chao, Cornell University Medical Center, New York, N.Y.; Ross, et al., Proc. Natl. Acad. Sci. 81:6681 (1984)).
Melanocytes were cultured on 8 chamber tissue culture slides (Nunc Inc., Naperville, Ill.) and were UV irradiated with 10 mJ/cm^2 as above. Four microM of propidium iodide (PI) was added to melanocyte cultures 24 hours after irradiation, for 5 minutes at […]. Cultures were washed with PBS and nuclei were analyzed using a Leitz confocal laser microscope (Leica, Deerfield, Ill.).
Melanocytes were sham or UV irradiated with 10 mJ/cm^2 and 25 mJ/cm^2. Twenty-four hours after irradiation, […] of propidium iodide was added to cultures as above and cells were viewed with fluorescent phase contrast Nikon microscope. The number of fragmented or homogeneously stained nuclei versus nonstained nuclei was determined in several representative fields and expressed as a percent of total cells. A minimum of 130 cells were counted for each condition.
Melanocytes were irradiated with 10 mJ/cm^2 or were sham irradiated as in Example 1 and then provided 50 ng/ml NGF or diluent alone. […]

p75 = p75 signal transduction in melanocytes (JNK activation, intracellular ceramide); type: cell-based, human
Protocol: To investigate p75 signal transduction, it was first determined by RT-PCR that trkA and trkC are not expressed in MC maintained in choleragen/TPA-free medium. MC were incubated with 10 ng/ml nerve growth factor (NGF) or neurotrophin-3 (NT-3) for 30 minutes and c-Jun amino terminal kinase (JNK) activation was determined. […] Furthermore, within 3 hours p75 activation by NGF, but not by NT-3, lead to a 2-fold increase of intracellular ceramide. As before, ceramide increase was abrogated by pre-incubation with the cyclic peptide. Because in cell lines, UV irradiation directly activates cell surface receptors such as Fas and the TNFα receptor, sham- or UV-irradiated MC were used to determine p75 activation.

p75 NGF-R = experiment: Northern blot of p75 NGF-R mRNA in NGF-supplemented melanocytes; type: cell-based, human

In the case of “NGF: nerve growth factor, neurotrophin ligand of p75 NGF-R and trk”, the “BCL-2 level in keratinocytes” value (Bcl-2 protein [1]) is reported as “contributes, at least in part, to BCL-2 maintenance”, the “Cell yields of melanocytes versus diluent alone” value (human melanocytes; UV 10 mJ/cm^2, 50 ng/ml NGF, 7 experiments) is reported as “significantly higher” and the “Cell yields, NGF-treated versus control cultures” value (human melanocytes; determined daily for 19 days) is reported as “up to 6.5 fold”. For the same substance, the “Thymidine labeling index, NGF-treated versus control cultures” value (human melanocytes; determined daily for 19 days) was at most 10 fold, the “Appearance of cultures after UV irradiation” value (human melanocytes; melanocytes and MM4 cells, 50 ng/ml NGF) was “appeared healthy” and the Bcl-2 level (Bcl-2 protein [2]; UV 10 mJ/cm^2 followed by 50 ng/ml NGF, 24 hours) was “substantially higher; also recorded: Bcl-2 induction”. The Bcl-2 level (Bcl-2 protein [2]; sham irradiated, 50 ng/ml NGF) was “only low levels of Bcl-2 protein”, the “Nuclei showing fragmentation (propidium iodide positive)” value (melanocytes) was 12% and the “JNK activation (phosphorylation of GST-c-Jun(1-79))” value (p75; 10 ng/ml, 30 minutes, MC without trkA and trkC) was “substantially induced phosphorylation of GST-c-Jun(1-79)”. The “Increase of intracellular ceramide” value (p75; within 3 hours) was 2 fold and the “p75 NGF-R mRNA transcript levels versus diluent controls” value (p75 NGF-R) was “several-fold higher”.
